Assay results from BindingDB's records for doi:10.7270/Q2RB7317 (Nmmlsc, 2009).

Target: Ras-related C3 botulinum toxin substrate 1 (Mus musculus, UniProt P63001)
Experiment: analog inhibition of wildtype Rac1 nucleotide loading – biochemical, additional analogs, multiplex bead flow cytometry, SAR follow-up (AID 2040)

## O=C1NC(=O)/C(=C2/C(=O)Nc3ccccc32)N1
  Ki: 250 nM

## O=C1NC(=S)N/C1=C1\C(=O)Nc2ccccc21 [(3Z)-3-(5-oxo-2-sulfanylideneimidazolidin-4-ylidene)-1H-indol-2-one]
  Ki: 160 nM

## O=C1Nc2c(F)cccc2C1=C1Nc2ccccc2C1=O
  Ki: 3230 nM

## O=C1Nc2ccc(Br)cc2C1=C1Nc2ccccc2C1=O
  Ki: 1510 nM
